# Experimental data reported in ChEMBL document CHEMBL1122560, “Adrenal medulla imaging agents: a structure-distribution relationship study of radiolabeled aralkylguanidines” (J Med Chem, 1984).
# Test: Ratio of the concentration levels determined for the adrenal medulla to the liver after 72 hr; [Adrenal Medulla] / [liver]
# Format: ADME, tissue-based
row,Ratio,Compound
1,45,N=C(N)Nc1cccc(I)c1
2,545,N=C(N)NCc1ccc(I)cc1
3,720,N=C(N)NCc1cccc(I)c1 [IOBENGUANE]
4,390,CC(N=C(N)N)c1cccc(I)c1 (stereo in doubt; 8b(+))
5,115,N=C(N)NCc1ccc(I)c(I)c1
6,2700,N=C(N)NCc1ccccc1
7,1.4,N=C(N)N [GUANIDINE]
8,70,N=C(N)NCCN1CCCCCCC1 [GUANETHIDINE]
9,190,N=C(N)NCCc1cccc(I)c1
10,190,CC(N=C(N)N)c1ccc(I)cc1 (racemic)
11,130,N=C(N)NCc1ccccc1I
12,5.2,N=C(N)NCc1cc(I)cc(I)c1
13,300,"CC(N=C(N)N)c1cccc(I)c1 (single isomer, unassigned; (-))"
14,200,N=C(N)NCCc1ccc(I)cc1
15,430,CC(N=C(N)N)c1cccc(I)c1 (racemic)
